Source: ChEMBL document CHEMBL3352114, “Synthesis and biological evaluation of unnatural derivatives of narciclasine: 7-aza-nornarciclasine and its N-oxide” (Bioorg Med Chem Lett, 2014)

What was measured:
Format in all cases: functional, cell-based
[1] = Cytotoxicity against human BxPC3 cells; conditions: BXPC-3
[2] = system: HeLa; test: Cytotoxicity against human HeLa cells after 48 hrs by MTT assay
[3] = system: MCF7; test: Cytotoxicity against human MCF7 cells after 48 hrs by MTT assay
[4] = system: DU-145; test: Cytotoxicity against human DU145 cells
[5] = system: NCI-H460; test: Cytotoxicity against human NCI-H460 cells
[6] = Homo sapiens, HeLa, 48 h, read-out: IC50
[7] = Homo sapiens, MCF7, 48 h, read-out: IC50

SMILES	IC50 [1]	IC50 [2, 6]	IC50 [3, 7]	IC50 [4]	IC50 [5]	IC50 ([2]; hela)	IC50 ([3]; mcf7)
CC(=O)OC[C@H]1[C@H](O)[C@@H](O)[C@@H](O)[C@@H]2NC(=O)c3c(cc4c(c3O)OCO4)[C@@H]12	0.07 µM	< 0.4 µM	< 0.4 µM				
O=C(OC[C@H]1[C@H](O)[C@@H](O)[C@@H](O)[C@@H]2NC(=O)c3c(cc4c(c3O)OCO4)[C@@H]12)c1ccccc1	0.01 µM	< 0.4 µM	< 0.4 µM	0.01 µM	0.03 µM		
O=C1N[C@@H]2C(=C[C@H](O)[C@@H](O)[C@H]2O)c2cccnc21 [listing 1 of 2 here]		> 100 µM	> 100 µM				
O=C1N[C@@H]2C(=C[C@H](O)[C@@H](O)[C@H]2O)c2ccc[n+]([O-])c21		> 100 µM	> 100 µM				
O=C1N[C@@H]2C(=C[C@H](O)[C@@H](O)[C@H]2O)c2cccnc21 [listing 2 of 2 here]						Not Active	Not Active
O=C1N[C@@H]2C(=C[C@H](O)[C@@H](O)[C@H]2O)c2cc3c(c(O)c21)OCO3 [NARCICLASINE]	0.05 µM			0.03 µM	0.05 µM		
